This is an account of results in patent publication US20260034115A1, “YAP1 INHIBITORS” (H. LEE MOFFITT CANCER CENTER AND RESEARCH INSTITUTE, INC., priority 2021, published 2026).

The target in one experiment is Yap1:Oct4 interaction (Homo sapiens, UniProt P46937). In words: Yap1:Oct4 interaction (in vitro binding assay). The note with it: FIG. 1.
The subject of another experiment is PC9-OSIMR cells. As to the kind of experiment: MTT IC50 on Osimertinib-resistant PC9 cells. The experiment is classed as cell-based.
For the next experiment, the system named is PC9 cells. As to the kind of experiment: MTT IC50 on parental PC9 cells. The experiment is classed as cell-based.
In a further experiment the test system is PC9luc cells. As to the kind of experiment: MTT IC50 on PC9 cells expressing a luciferase gene. In kind it is cell-based.
The next experiment deals with PC9luc-OSIMR cells. As to the kind of experiment: MTT IC50 on PC9-Osimertinib resistant cells expressing a luciferase gene. The experiment is classed as cell-based.

Like-named read-outs stand apart in the source and are kept apart here.

Yap1:Oct4 interaction, sequence (P46937 whole entry): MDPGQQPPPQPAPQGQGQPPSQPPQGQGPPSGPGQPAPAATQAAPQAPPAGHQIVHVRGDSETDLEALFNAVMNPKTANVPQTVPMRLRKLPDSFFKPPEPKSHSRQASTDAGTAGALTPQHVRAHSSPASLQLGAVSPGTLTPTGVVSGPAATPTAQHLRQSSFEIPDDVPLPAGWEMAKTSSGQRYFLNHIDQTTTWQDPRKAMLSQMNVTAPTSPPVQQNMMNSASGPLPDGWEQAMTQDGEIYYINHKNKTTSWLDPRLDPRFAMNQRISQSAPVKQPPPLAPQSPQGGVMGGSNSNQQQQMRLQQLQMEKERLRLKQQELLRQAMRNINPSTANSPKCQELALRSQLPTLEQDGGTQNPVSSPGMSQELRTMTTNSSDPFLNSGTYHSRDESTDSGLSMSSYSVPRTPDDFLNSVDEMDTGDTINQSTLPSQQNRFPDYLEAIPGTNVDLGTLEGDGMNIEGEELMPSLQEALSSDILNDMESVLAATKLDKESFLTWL

`COC(=O)[C@H](Cc1ccc(OCc2ccccc2)cn1)NC(=O)CC1CCN(C(=O)CCc2ccc(Cl)c(Cl)c2)CC1` [SR6-095] showed an IC50 at Yap1:Oct4 interaction of 1.01 ± 0.26 µM.

Consider `CCOc1ccc(CCCN2CCC(CC(=O)N[C@@H](Cc3cccc(OC)c3)C(=O)OC)CC2)cc1` [SR7-042], for which the IC50 at Yap1:Oct4 interaction came out at 1.4 µM.

For `COC(=O)[C@H](Cc1ccc(OCc2ccccc2)cc1)NC(=O)CC1CCN(CCCc2ccc(Cl)c(Cl)c2)CC1` [SR6-086], the IC50 at Yap1:Oct4 interaction came to 1.85 ± 0.89 µM.

On to `COC(=O)[C@H](Cn1cc(-c2ccccc2)cn1)NC(=O)CC1CCN(C(=O)CCc2cccc(F)c2)CC1` [SR6-096], for which, at Yap1:Oct4 interaction, the IC50 was 0.87 ± 0.32 µM.

The compound `COC(=O)[C@H](Cc1ccc(OCc2ccccc2)cc1)NC(=O)CC1CCN(CCCc2cccc(F)c2)CC1` [SR6-085] came in with an IC50 on Yap1:Oct4 interaction of 0.75 ± 0.15 µM.

For `C=CC(=O)Nc1cc(Nc2nccc(-c3cn(C)c4ccccc34)n2)c(OC)cc1N(C)CCN(C)C` [Osimertinib, reference compound], the IC50 in the experiment on PC9-OSIMR cells (Homo sapiens, PC-9, Osimertinib-resistant PC9 cells, read-out: IC50) was determined as 5.2 µM; in the experiment with PC9-OSIMR cells (Homo sapiens, PC-9, PC9-OSIMR, read-out: IC50 MTT), 5.25 µM; with PC9 cells (Homo sapiens, PC-9, EGFR-mutant PC9 cells, read-out: IC50 for Osimertinib), 0.016 µM; with PC9 cells (Homo sapiens, PC-9, PC9, read-out: IC50 MTT), 0.0162 µM; in the experiment with PC9luc cells (Homo sapiens, PC-9) it was 0.0161 µM; in the experiment with PC9luc-OSIMR cells, 4.93 µM. Further, the “fold reduction in sensitivity” value in the experiment with PC9-OSIMR cells (Osimertinib-resistant vs parental PC9 cells) turned out to be 325 fold.

The compound `COC(=O)[C@H](Cc1ccc(OCc2ccccc2)cc1)NC(=O)CC1CCN(CCCc2ccc(F)c(C#N)c2)CC1` [SR6-170] gave an IC50 on Yap1:Oct4 interaction of 0.78 ± 0.15 µM.

Regarding `COC(=O)[C@H](Cc1cccc(OC)c1)NC(=O)CC1CCN(CCCc2ccc(Cl)c(Cl)c2)CC1` [SR7-045], the IC50 at Yap1:Oct4 interaction was found to be 1.45 µM.

As for `CCOc1ccc(CCCN2CCC(CC(=O)Nc3ccc(OCc4ccccc4)cc3)CC2)cc1` [SR7-052], the IC50 came out at 5.47 µM with PC9-OSIMR cells (PC9-OSIMR, read-out: IC50 MTT); 1.23 µM in the experiment on PC9 cells (PC9, read-out: IC50 MTT); 1.27 µM in the experiment on PC9luc cells; 4.03 µM in the experiment on PC9luc-OSIMR cells; 0.445 µM at Yap1:Oct4 interaction.

On to `N#Cc1ccc(CCCN2CCC(CC(=O)Nc3ccc(OCc4ccccc4)cc3)CC2)cc1` [SR7-061], for which the IC50 at Yap1:Oct4 interaction amounted to 1.3 µM.

Turning to `O=C(CC1CCN(CCCc2cccc(F)c2)CC1)Nc1ccc(OCc2ccccc2)cc1` [SR7-057], the IC50 on Yap1:Oct4 interaction worked out at 0.707 µM.

With `O=C(CC1CCN(CCCc2ccc(Cl)c(Cl)c2)CC1)Nc1ccc(OCc2ccccc2)cc1` [SR7-053], the IC50 in the experiment with PC9-OSIMR cells (PC9-OSIMR, read-out: IC50 MTT) is 3.9 µM; with PC9 cells (PC9, read-out: IC50 MTT), 1.16 µM; with PC9luc cells, 0.865 µM; in the experiment on PC9luc-OSIMR cells, 3.35 µM; at Yap1:Oct4 interaction, 0.564 µM.

For the compound `CCOc1ccc(CCCN2CCC(CC(=O)N[C@@H](Cc3ccc(OCc4ccccc4)cc3)C(=O)OC)CC2)cc1` [SR6-087], the IC50 at Yap1:Oct4 interaction stood at 0.51 ± 0.08 µM.

Take `COC(=O)[C@H](Cc1ccc(OC)cc1)NC(=O)CC1CCN(CCCc2cccc(F)c2)CC1` [SR7-067]: the IC50 in the experiment on PC9-OSIMR cells (PC9-OSIMR, read-out: IC50 MTT) is above 40 µM; in the experiment with PC9 cells (PC9, read-out: IC50 MTT), above 40 µM; with PC9luc cells, above 40 µM; in the experiment on PC9luc-OSIMR cells it was above 40 µM; at Yap1:Oct4 interaction, 2.56 µM.

For `COC(=O)[C@H](Cc1cccc(OC)c1)NC(=O)CC1CCN(CCC(C)(C)C)CC1` [SR7-055], the IC50 on Yap1:Oct4 interaction is above 40 µM.

One may read the IC50 as the midpoint of a concentration-inhibition curve.
